Our source for the TGI and GI50 values is PubChem BioAssay (NCI).

SMILES strings stand for the structures. Several values for one entry are separate records, joined by “and”; a condition that tells them apart may be missing. Equal entries are not always repeated.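 Interpolation was linear, between the two tested concentrations surrounding the appropriate level; five concentrations were tested over 48 hours in 96-well plates. GI50 is the concentration that inhibits growth by half. At the TGI there is no net growth.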

The subject of one assay is UACC-257 melanoma. The experiment in a line: inhibition of tumour cell growth, NCI panel, 48 h.
On to `COc1cc2c(c(OC)c1)/C(=C/Sc1ccccc1)C(=O)N(C(C)(C)C)C2`, for which the TGI amounted to 85.3 µM.
In the case of `CCC(CCCN)Nc1cc(OC)cc2c(C)ccnc12` (stereo unspecified), the TGI was 33.7 µM.
The same measure, in the same setting: the result for `CC(C)(C)OC(=O)N/N=C(/N)Cc1ccc(Cl)cc1` reads above 100 µM.

A further assay deals with MOLT-4 leukemia. Kind of assay: inhibition of tumour cell growth, NCI panel, 48 h.
`COC(=O)[C@@H]1[C@H](OC(C)=O)CCC2[C@@]3(C[C@@H](c4ccoc4)O[C@@H]3OC)[C@H](C)CC[C@]21C(=O)OC` (stereo partly specified): the TGI was above 25 µM.
In turn, `Cc1n[nH]c(=O)n1N1C(=O)CCCC1=O` gave a TGI of 62.8 µM.
As to `COCc1nc(N)nc(N2N=C(C)CC2(C)C)n1`, the TGI is above 100 µM.
Turning to `CC(C)(C)OC(=O)NC(Cc1ccccc1)OCc1ccccc1` (stereo unspecified), the TGI was found to be 77.6 µM.
In turn, `CNC(=O)C1(N)c2ccccc2C=Cc2ccccc21` returned a TGI above 100 µM.
Take `CCOC(=O)C1C(c2ccc3c(c2)OCO3)c2c([nH][nH]c2=O)CC1(C)O` (stereo unspecified): the TGI was above 100 µM.
`O=C(NC1CCCCC1NC(c1ccccc1)(c1ccccc1)c1ccccc1)C(=O)NC1CCCCC1NC(c1ccccc1)(c1ccccc1)c1ccccc1` (stereo unspecified) displayed a TGI above 100 µM.
The same measure, in the same setting: as for `O=C(c1ccccc1)c1ccc2nc(-c3c(Cl)c(Cl)c(Cl)c(Cl)c3C(=O)N/N=C/c3ccc(Cl)cc3)[nH]c2c1`, the figure is above 100 µM; as for `CC(=O)c1ccc2c(c1)CC1(C2)Cc2cc3c(cc2C1=O)CCC3` (stereo unspecified), 21.8 µM.
Consider `CCc1nn(CN2CCOCC2)c(=S)n1/N=C/c1ccc(-c2ccc(Cl)cc2)o1`, for which the TGI is above 100 µM.
The compound `CSc1nc2c(c(=O)[nH]1)N=C(c1ccc([N+](=O)[O-])cc1)CC(c1ccccc1)N2` (stereo unspecified) registered a TGI above 100 µM.
Compound `C/C(=N\Nc1ccc([N+](=O)[O-])cc1[N+](=O)[O-])c1sc(-n2nc(-c3ccccc3)cc2-c2ccccc2)nc1C` returned a TGI of 46.8 µM.
`COc1cc(C2SCC(=O)N2c2cccc(Cl)c2)cc(OC)c1OC` (stereo unspecified) showed a TGI above 100 µM.
Consider `CS(=O)(=O)OCC1CN(S(C)(=O)=O)c2cc(O)ccc21` (stereo unspecified), for which the TGI stood at 6.93 µM.
Compound `C=C(Br)CNC(=O)Nc1ccc(Cl)c(Cl)c1` came in with a TGI of 73.9 µM.
The same measure, in the same setting: the result for `Nc1n[n+](CC(=O)c2ccccc2)c2sc(-c3ccccc3)nn12` reads above 100 µM.
The compound `CC1CC(C)C(C#N)N(C)c2ccccc21` (stereo unspecified) had a TGI above 100 µM.
Regarding `O=C(O)C12C3CCC(CC3)C1(C(=O)O)C1CCC2C1` (stereo unspecified), the TGI is above 100 µM.
As to `NC(N)=NCCCC(NC(=O)c1cccc2c(=O)c3ccccc3[nH]c12)C(=O)O` (stereo unspecified), the TGI was above 100 µM.
In turn, `O=C(NNCC(O)COc1ccccc1)c1ccccc1` (stereo unspecified) registered a TGI above 100 µM.
In the case of `COC(=O)[C@@H]1CC(C(C[N+](=O)[O-])c2ccc(O[Si](C)(C)C(C)(C)C)cc2)C(=O)N1C(=O)OC(C)(C)C` (stereo partly specified), the GI50 is 14.4 µM and 31.4 µM; the TGI was above 100 µM.
Compound `O=S1(=O)OCCOS(=O)(=O)C1(F)Br` displayed a TGI above 100 µM.
In the case of `COC(=O)[C@H](CCSC)NC(=O)N[C@H](C)c1ccccc1`, the TGI was above 100 µM.
With `C=CC[C@@H](N)C(=O)N(C)[C@@H](C)[C@@H](O)c1ccccc1`, the TGI is above 100 µM.
Consider `N#Cc1sc2c(c1OC(=O)c1ccccc1)c(=O)n(-c1ccccc1)c(=S)n2-c1ccccc1`, for which the TGI was 51.8 µM.
`Cc1cc(C)c(-n2[nH]c(=O)n(C)c2=O)c(C)c1` yielded a TGI above 100 µM.
Consider `O=C(NC1=C(Cl)C(=O)c2ccccc2C1=O)c1ccc(F)cc1`, for which the TGI was 7.13 µM.
The same measure, in the same setting: as for `CC1=NC(=Cc2cccc(Cl)c2)C(=O)N1n1c(-c2ccccc2)nc2ccccc2c1=O`, the figure is 98.3 µM.
With `CO/C(=N\N=C\c1ccc(OC)c(OC)c1)c1ccncc1`, the TGI was above 10 µM.
`COc1cc2c(c(OC)c1)/C(=C/Sc1ccccc1)C(=O)N(C(C)(C)C)C2` yielded a TGI above 100 µM.
The compound `CCC(CCCN)Nc1cc(OC)cc2c(C)ccnc12` (stereo unspecified) came in with a TGI of 40 µM.
As to `CC(C)(C)OC(=O)N/N=C(/N)Cc1ccc(Cl)cc1`, the TGI was above 100 µM.

The next assay has as its system CAKI-1 renal. Kind of assay: inhibition of tumour cell growth, NCI panel, 48 h.
For `COC(=O)[C@@H]1[C@H](OC(C)=O)CCC2[C@@]3(C[C@@H](c4ccoc4)O[C@@H]3OC)[C@H](C)CC[C@]21C(=O)OC` (stereo partly specified), the TGI was above 25 µM.
The compound `Cc1n[nH]c(=O)n1N1C(=O)CCCC1=O` showed a TGI above 100 µM.
As to `CCN1CCC(C)OP1(=O)Cc1ccccc1` (stereo unspecified), the TGI is above 100 µM.
On to `COCc1nc(N)nc(N2N=C(C)CC2(C)C)n1`, for which the TGI is above 100 µM.
The compound `CC(C)(C)OC(=O)NC(Cc1ccccc1)OCc1ccccc1` (stereo unspecified) returned a TGI of 37.8 µM.
`CNC(=O)C1(N)c2ccccc2C=Cc2ccccc21` registered a TGI above 100 µM.
The compound `CCOC(=O)C1C(c2ccc3c(c2)OCO3)c2c([nH][nH]c2=O)CC1(C)O` (stereo unspecified) gave a TGI above 100 µM.
On to `O=C(NC1CCCCC1NC(c1ccccc1)(c1ccccc1)c1ccccc1)C(=O)NC1CCCCC1NC(c1ccccc1)(c1ccccc1)c1ccccc1` (stereo unspecified), for which the TGI is above 100 µM.
`O=C(c1ccccc1)c1ccc2nc(-c3c(Cl)c(Cl)c(Cl)c(Cl)c3C(=O)N/N=C/c3ccc(Cl)cc3)[nH]c2c1` came in with a TGI above 100 µM.
The compound `CC(=O)c1ccc2c(c1)CC1(C2)Cc2cc3c(cc2C1=O)CCC3` (stereo unspecified) registered a TGI of 47 µM.
On the same count and under the same terms, the result for `CCc1nn(CN2CCOCC2)c(=S)n1/N=C/c1ccc(-c2ccc(Cl)cc2)o1` reads above 100 µM; that for `CSc1nc2c(c(=O)[nH]1)N=C(c1ccc([N+](=O)[O-])cc1)CC(c1ccccc1)N2` (stereo unspecified), above 100 µM; that for `C/C(=N\Nc1ccc([N+](=O)[O-])cc1[N+](=O)[O-])c1sc(-n2nc(-c3ccccc3)cc2-c2ccccc2)nc1C`, above 100 µM.
The compound `COc1cc(C2SCC(=O)N2c2cccc(Cl)c2)cc(OC)c1OC` (stereo unspecified) came in with a TGI above 100 µM.
The same measure, in the same setting: the result for `CS(=O)(=O)OCC1CN(S(C)(=O)=O)c2cc(O)ccc21` (stereo unspecified) reads 14.2 µM; that for `COC1/C=C/C(C)C(C(C)C(OC)C(C)CCC(=O)C(C)C(C/C=C/N(C)C=O)OC)OC(=O)C=CC2OC2(C)CC(OC)C(OC)C2=CC(=O)O[C@@H](C(C)C(OC)CC(OC)/C=C/C(C)C(O)C1)[C@H]2O` (stereo partly specified), 0.0203 µM; that for `C=C(Br)CNC(=O)Nc1ccc(Cl)c(Cl)c1`, 54.2 µM.
Take `O=c1[nH]cc(-c2c[nH]c3ccccc23)nc1-c1c[nH]c2ccccc12`: the TGI was 24.6 µM.
Same read-out and setting: the result for `Nc1n[n+](CC(=O)c2ccccc2)c2sc(-c3ccccc3)nn12` reads above 100 µM; that for `CCC(C=O)P1(=O)OC(C)(C)CN1C(C)(C)C` (stereo unspecified), above 100 µM.
In the case of `CC1CC(C)C(C#N)N(C)c2ccccc21` (stereo unspecified), the TGI was above 100 µM.
For the compound `O=C(O)C12C3CCC(CC3)C1(C(=O)O)C1CCC2C1` (stereo unspecified), the TGI was above 100 µM.
In turn, `O=C(NNCC(O)COc1ccccc1)c1ccccc1` (stereo unspecified) came in with a TGI above 100 µM.
Take `COC(=O)[C@@H]1CC(C(C[N+](=O)[O-])c2ccc(O[Si](C)(C)C(C)(C)C)cc2)C(=O)N1C(=O)OC(C)(C)C` (stereo partly specified): the TGI was above 100 µM.
As for `O=S1(=O)OCCOS(=O)(=O)C1(F)Br`, the TGI was above 100 µM.
